Molecular target: T1, TstT (LVIS_0852) (Levilactobacillus brevis, UniProt Q03S28)
T1 sequence (Q03S28 1-120): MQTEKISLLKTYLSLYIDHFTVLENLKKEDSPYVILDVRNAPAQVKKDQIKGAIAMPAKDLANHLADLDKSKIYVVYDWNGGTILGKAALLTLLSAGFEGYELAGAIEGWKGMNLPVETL
Format: biochemical

## O=S(O)O [sulfite]
  % decrease at 100 μM: 40%

From PMC4038355 (Molecular microbiology, 2014)
